Laboratory results from EP0923530B1, “INHIBITION OF MATRIX METALLOPROTEASES BY SUBSTITUTED BIARYL OXOBUTYRIC ACIDS” (Bayer Corporation, priority 1996, dated 1997).

Key:
[1] = molecular target: T1, MMP-3 (Homo sapiens, UniProt P08254); assay: P218 quenched fluorescence assay (MMP Microfluorometric Profiling Assay), MMP-3; assay type: biochemical; conditions: 6 µM P218 substrate, 25 min at 37°C, pH 6.5; read-out: MMP-3 Fluorogenic IC50
T1 construct: made in house; host or cells: CHO cells
Excerpt: (§1) The P218 quenched fluorescence assay (Microfluorometric Profiling Assay) is a modification of that originally described by Knight, et al.. FEBS Lett. 296, 263 (1992) for a related substance and a variety of matrix metalloproteinases (MMPs) in cuvettes. The assay was run with each invention compound and the three MMPs, MMP-3, MMP-9 and MMP-2, analyzed in parallel, adapted as follows for a 96-well microtiter plate and a Hamilton AT® workstation. P218 Fluorogenic Substrate: P218 is a synthetic substrate containing a 4-acetyl-7-methoxycoumarin ( MCA) group in the N-terminal position and a 3-[2, 4-dinitrophenyl]-L-2,3-diaminopropionyl (DPA) group internally. This is a modification of a peptide reported by Knight (1992) that was used as a substrate for matrix metalloproteinases. Once the P218 peptide is cleaved (putative clip site at the Ala-Leu bond), the fluorescence of the MCA group can be detected on a fluorometer with excitation at 328 nm and emission at 393 nm. P218 is currently being produced BACHEM exclusively for Bayer. P218 has the structure: [formula]
Recombinant Human CHO Pro-MMP-3: Human CHO pro-stromelysin-257 (pro-MMP-3) was expressed and purified as described by Housley, et al.. J. Biol. Chem. 268, 4481 (1993).
Activation of Pro-MMP-3: Pro-MMP-3 at 1.72 µM (100 µg/mL) in 5 mM Tris at pH 7.5, 5 mM CaCl2, 25 mM NaCl, and 0.005% Brij-35 (MMP-3 activation buffer) was activated by incubation with TPCK (N-tosyl-(L)-phenylalanine chloromethyl ketone) trypsin (1:100 w/w to pro-MMP-3) at 25 °C for 30 min. The reaction was stopped by addition of soybean trypsin inhibitor (SBTI; 5:1 w/w to trypsin concentration). This activation protocol results in the formation of 45 kDa active MMP-3, which still contains the C-terminal portion of the enzyme.
(§2) Hamiltion Microlab AT Plus: The MMP-Profiling Assay is performed robotically on a Hamilton MicroLab AT Plus®. […]
(§3) Millipore Cytofluor II. Following incubation, the plate was read on a Cytofluor II fluorometric plate reader with excitation at 340 nm and emission at 395 nm with the gain set at 80. […]

[2] = molecular target: T2, MMP-9 (Homo sapiens, UniProt P14780); assay: P218 quenched fluorescence assay (MMP Microfluorometric Profiling Assay), MMP-9; assay type: biochemical; conditions: 6 µM P218 substrate, 25 min at 37°C, pH 6.5; read-out: MMP-9 Fluorogenic IC50
T2 construct: made in house
T2 sequence (P14780 107-707 limits assumed): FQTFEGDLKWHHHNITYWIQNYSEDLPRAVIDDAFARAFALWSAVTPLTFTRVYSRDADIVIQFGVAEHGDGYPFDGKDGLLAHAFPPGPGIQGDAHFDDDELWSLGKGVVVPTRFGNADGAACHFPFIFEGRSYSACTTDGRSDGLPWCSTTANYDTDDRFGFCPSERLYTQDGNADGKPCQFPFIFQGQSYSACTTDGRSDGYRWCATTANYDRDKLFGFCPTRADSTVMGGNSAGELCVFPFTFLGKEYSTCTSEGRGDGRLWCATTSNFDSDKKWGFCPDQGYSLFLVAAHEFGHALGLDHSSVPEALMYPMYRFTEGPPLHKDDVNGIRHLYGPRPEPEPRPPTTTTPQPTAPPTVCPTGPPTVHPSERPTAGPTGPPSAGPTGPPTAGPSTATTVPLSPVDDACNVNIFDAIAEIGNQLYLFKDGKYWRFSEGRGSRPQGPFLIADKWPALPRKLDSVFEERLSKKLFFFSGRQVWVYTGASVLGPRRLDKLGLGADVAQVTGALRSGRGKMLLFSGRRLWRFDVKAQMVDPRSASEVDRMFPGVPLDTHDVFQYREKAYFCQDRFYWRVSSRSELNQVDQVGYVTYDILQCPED
Excerpt: as §1
Recombinant Human Pro-MMP-9: Human pro-gelatinase B (pro-MMP-9) derived from U937 cDNA as described by Wilhelm, et al. J. Biol. Chem. 264, 17213 (1989) was expressed as the full-length form using a baculovirus protein expression system. The pro-enzyme was purified using methods previously described by Hibbs, et al. J. Biol. Chem. 260, 2493 (1984).
Activation of Pro-MMP-9: […] 20 µg/mL in 50 mM Tris at pH 7.4, 10mM CaCl2, 150 mM NaCl, and 0.005% Brij-35 (MMP-9 activation buffer) was activated by incubation with 0.5 mM p-aminophenylmercuric acetate (APMA) for 3.5 h at 37°C. The enzyme was dialyzed against the same buffer to revmove the APMA.
as §2, §3

[3] = molecular target: MMP-2 (Homo sapiens, UniProt P08253); assay: biochemical
MMP-2, sequence (P08253 110-660): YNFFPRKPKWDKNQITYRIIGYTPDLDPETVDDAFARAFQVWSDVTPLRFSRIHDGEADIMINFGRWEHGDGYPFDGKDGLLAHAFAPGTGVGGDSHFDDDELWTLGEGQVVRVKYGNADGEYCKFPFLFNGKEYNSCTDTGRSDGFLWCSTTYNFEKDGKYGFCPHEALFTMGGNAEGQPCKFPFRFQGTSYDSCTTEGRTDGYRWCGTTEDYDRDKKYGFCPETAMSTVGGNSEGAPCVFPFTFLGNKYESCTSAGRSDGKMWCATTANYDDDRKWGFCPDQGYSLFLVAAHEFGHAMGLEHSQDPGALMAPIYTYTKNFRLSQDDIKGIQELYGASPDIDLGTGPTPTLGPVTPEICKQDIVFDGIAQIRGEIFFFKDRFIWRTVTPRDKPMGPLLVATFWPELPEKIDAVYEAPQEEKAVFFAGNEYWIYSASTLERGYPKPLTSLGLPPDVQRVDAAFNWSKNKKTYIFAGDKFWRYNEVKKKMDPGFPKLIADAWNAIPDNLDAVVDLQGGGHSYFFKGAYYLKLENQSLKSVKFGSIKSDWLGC

T1 sequence (P08254 100-477): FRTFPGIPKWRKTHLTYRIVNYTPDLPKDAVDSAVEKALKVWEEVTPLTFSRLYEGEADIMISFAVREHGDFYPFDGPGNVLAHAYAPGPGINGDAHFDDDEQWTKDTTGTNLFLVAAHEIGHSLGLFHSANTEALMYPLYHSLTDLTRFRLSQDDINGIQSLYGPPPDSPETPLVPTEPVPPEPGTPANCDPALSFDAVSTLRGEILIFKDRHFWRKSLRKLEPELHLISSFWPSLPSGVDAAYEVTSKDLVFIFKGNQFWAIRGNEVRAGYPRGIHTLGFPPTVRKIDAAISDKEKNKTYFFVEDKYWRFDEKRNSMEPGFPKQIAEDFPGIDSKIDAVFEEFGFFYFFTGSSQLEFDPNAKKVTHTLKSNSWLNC

SMILES | IC50 [1] | IC50 [2] | IC50 [3]
CC1=NCC(=O)N(CCC(CC(=O)c2ccc(-c3ccc(Cl)cc3)cc2)C(=O)O)c2ccccc21 (stereo not drawn) [Example 22, α-[2-(4'-chloro[1,1'-biphenyl]-4-yl)-2-oxoethyl]-2,3-dihydro-5-methyl-2-oxo-1H-1,4-benzodiazepine-1-butanoic acid] | 140 nM | 120 nM | 24 nM
O=C(CC(CCn1nnc2ccccc2c1=O)C(=O)O)c1ccc(-c2ccc(Cl)cc2)cc1 (stereo not drawn) [Example 19, α-[2-(4'-chloro[1,1'-biphenyl]-4-yl)-2-oxoethyl]-4-oxo-1,2,3,-Benzotriazine-3(4H)-butanoic acid] | 47 nM | 4.7 nM | 2.4 nM
O=C(c1ccc(-c2ccc(Cl)cc2)cc1)C1CCC(Cn2nnc3ccccc3c2=O)C1C(=O)O (stereo not drawn) [Example 1, 2-[(4'-chloro[1,1'-biphenyl]-4-yl)carbonyl]-5-[(4-oxo-1,2,3-benzotriazin-3(4H)-yl)methyl]-cyclopentanecarboxylic acid] | 1.7 nM | 0.34 nM | 0.39 nM
